Test results published in patent US20100041642A1, “UREA INHIBITORS OF MAP KINASES” (LOCUS PHARMACEUTICALS, INC., priority 2008, published 2010).
pIC50: −log10 of the molar value.

Target: p38 (Homo sapiens, UniProt Q16539)
Test: Protein Kinase Assay (33P incorporation from γ-[33P]ATP into GST-ATF-2)
Type: biochemical
Details: 2 nM p38, preincubated 20 min at 30° C.; 10 uM cold ATP, 2 uM GST-ATF2, 70 min; read-out: ACT. (Activity), IC50 category in Protein Kinase Assay
In short: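 Compounds preincubated 20 min at 30 °C with 2 nM p38; reaction started with 2 uM GST-ATF-2 (aa 19-96) and 10 uM ATP plus γ-[33P]ATP, pH 7.5, 70 min at 30 °C, 2% DMSO. Phosphoric acid stop; 33P-labelled substrate captured on phosphocellulose and counted by scintillation.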

Chain of p38 (Q16539 whole entry): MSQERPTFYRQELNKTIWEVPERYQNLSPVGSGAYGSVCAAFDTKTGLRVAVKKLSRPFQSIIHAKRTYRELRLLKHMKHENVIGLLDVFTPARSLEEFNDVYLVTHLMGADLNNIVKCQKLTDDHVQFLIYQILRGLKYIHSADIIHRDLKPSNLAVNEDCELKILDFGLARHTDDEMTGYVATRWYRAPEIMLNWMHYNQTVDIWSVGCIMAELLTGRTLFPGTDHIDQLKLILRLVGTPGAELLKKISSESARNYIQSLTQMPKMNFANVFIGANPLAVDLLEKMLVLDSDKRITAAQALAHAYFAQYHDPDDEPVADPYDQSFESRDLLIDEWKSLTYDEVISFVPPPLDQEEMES

pIC50	Compound
> 7.00	CC(C)(C)c1cc(C(=O)N2CCNC(=O)C2(C)C)c(NC(=O)Nc2cccc(-c3cnco3)c2)s1 [1-(5-tert-butyl-3-(2,2-dimethyl-3-oxopiperazine-1-carbonyl)thiophen-2-yl)-3-(3-(oxazol-5-yl)phenyl)urea]
> 7.00	CC(C)(C)c1cc(C(=O)N2CCNC(=O)C2(C)C)c(NC(=O)Nc2cccc(-c3cccnc3)c2)s1 [1-(5-tert-butyl-3-(2,2-dimethyl-3-oxopiperazine-1-carbonyl)thiophen-2-yl)-3-(3-(pyridin-3-yl)phenyl)urea]
> 7.00	CC(C)(C)c1cc(C(=O)N2CCNC(=O)C2(C)C)c(NC(=O)Nc2cccc(-c3ccncc3)c2)s1 [1-(5-tert-butyl-3-(2,2-dimethyl-3-oxopiperazine-1-carbonyl)thiophen-2-yl)-3-(3-(pyridin-4-yl)phenyl)urea]
> 7.00	Cc1ccc(NC(=O)Nc2sc(C(C)(C)C)cc2C(=O)N2CCNC(=O)C2(C)C)cc1C#N [1-(5-tert-butyl-3-(2,2-dimethyl-3-oxopiperazine-1-carbonyl)thiophen-2-yl)-3-(3-cyano-4-methylphenyl)urea]
> 7.00	C#Cc1cc(NC(=O)Nc2sc(C(C)(C)C)cc2C(=O)N2CCNC(=O)C2(C)C)ccc1C [1-(5-tert-butyl-3-(2,2-dimethyl-3-oxopiperazine-1-carbonyl)thiophen-2-yl)-3-(3-ethynyl-4-methylphenyl)urea]
> 7.00	COc1ccc(-c2cc(NC(=O)Nc3sc(C(C)(C)C)cc3C(=O)N3CCNC(=O)C3(C)C)cc(F)c2C)cn1 [1-(5-tert-butyl-3-(2,2-dimethyl-3-oxopiperazine-1-carbonyl)thiophen-2-yl)-3-(3-fluoro-5-(6-methoxypyridin-3-yl)-4-methylphenyl)urea]
> 5.00	CC(C)(C)c1cc(C(=O)N2CCNC(=O)C2(C)C)c(NC(=O)Nc2cccc(N3CCOCC3)c2)s1 [1-(5-tert-butyl-3-(2,2-dimethyl-3-oxopiperazine-1-carbonyl)thiophen-2-yl)-3-(3-morpholinophenyl)urea]
> 7.00	COc1ccc(NC(=O)Nc2sc(C(C)(C)C)cc2C(=O)N2CCNC(=O)C2(C)C)c(C)c1-c1ccncc1 [1-(5-tert-butyl-3-(2,2-dimethyl-3-oxopiperazine-1-carbonyl)thiophen-2-yl)-3-(4-methoxy-2-methyl-3-(pyridin-4-yl)phenyl)urea]
> 7.00	COc1ccc(NC(=O)Nc2sc(C(C)(C)C)cc2C(=O)N2CCNC(=O)C2(C)C)cc1-c1ccncc1 [1-(5-tert-butyl-3-(2,2-dimethyl-3-oxopiperazine-1-carbonyl)thiophen-2-yl)-3-(4-methoxy-3-(pyridin-4-yl)phenyl)urea]
> 7.00	Cc1ccc(NC(=O)Nc2sc(C(C)(C)C)cc2C(=O)N2CCNC(=O)C2(C)C)cc1C#C[Si](C)(C)C [1-(5-tert-butyl-3-(2,2-dimethyl-3-oxopiperazine-1-carbonyl)thiophen-2-yl)-3-(4-methyl-3-(2-(trimethylsilyl)ethynyl)phenyl)urea]
> 7.00	Cc1ccc(NC(=O)Nc2sc(C(C)(C)C)cc2C(=O)N2CCNC(=O)C2(C)C)cc1N1C(=O)CN(C)C1=O [1-(5-tert-butyl-3-(2,2-dimethyl-3-oxopiperazine-1-carbonyl)thiophen-2-yl)-3-(4-methyl-3-(3-methyl-2,5-dioxoimidazolidin-1-yl)phenyl)urea]

Further lines, the compound ahead of its results:

Compound	pIC50
CC(C)(C)c1cc(C(=O)N2CCNC(=O)C2(C)C)c(NC(=O)Nc2ccc(F)c(-c3ccc(OCCN4CCOCC4)nc3)c2)s1 [1-(5-tert-butyl-3-(2,2-dimethyl-3-oxopiperazine-1-carbonyl)thiophen-2-yl)-3-(4-fluoro-3-(6-(2-morpholinoethoxy)pyridin-3-yl)phenyl)urea]	> 7.00
Cc1ccc(NC(=O)Nc2sc(C(C)(C)C)cc2C(=O)N2CCNC(=O)C2(C)C)cc1-c1cnc(N2CCOCC2)nc1 [1-(5-tert-butyl-3-(2,2-dimethyl-3-oxopiperazine-1-carbonyl)thiophen-2-yl)-3-(4-methyl-3-(2-morpholinopyrimidin-5-yl)phenyl)urea]	> 7.00
Cc1ccc(NC(=O)Nc2sc(C(C)(C)C)cc2C(=O)N2CCNC(=O)C2(C)C)cc1C#CCOCCN1CCOCC1 [1-(5-tert-butyl-3-(2,2-dimethyl-3-oxopiperazine-1-carbonyl)thiophen-2-yl)-3-(4-methyl-3-(3-(2-morpholinoethoxy)prop-1-ynyl)phenyl)urea]	> 7.00
Cc1ccc(NC(=O)Nc2sc(C(C)(C)C)cc2C(=O)N2CCNC(=O)C2(C)C)cc1C#CCN1CCN(C)CC1 [1-(5-tert-butyl-3-(2,2-dimethyl-3-oxopiperazine-1-carbonyl)thiophen-2-yl)-3-(4-methyl-3-(3-(4-methylpiperazin-1-yl)prop-1-ynyl)phenyl)urea]	> 7.00
Cc1ccc(NC(=O)Nc2sc(C(C)(C)C)cc2C(=O)N2CCNC(=O)C2(C)C)cc1C#CCOC1CCOCC1 [1-(5-tert-butyl-3-(2,2-dimethyl-3-oxopiperazine-1-carbonyl)thiophen-2-yl)-3-(4-methyl-3-(3-(tetrahydro-2H-pyran-4-yloxy)prop-1-ynyl)phenyl)urea]	> 7.00
Cc1ccc(NC(=O)Nc2sc(C(C)(C)C)cc2C(=O)N2CCNC(=O)C2(C)C)cc1C#CCN1CCOCC1 [1-(5-tert-butyl-3-(2,2-dimethyl-3-oxopiperazine-1-carbonyl)thiophen-2-yl)-3-(4-methyl-3-(3-morpholinoprop-1-ynyl)phenyl)urea]	> 7.00
Cc1ccc(NC(=O)Nc2sc(C(C)(C)C)cc2C(=O)N2CCNC(=O)C2(C)C)cc1-c1ccc(N2CCN(C)CC2)cn1 [1-(5-tert-butyl-3-(2,2-dimethyl-3-oxopiperazine-1-carbonyl)thiophen-2-yl)-3-(4-methyl-3-(5-(4-methylpiperazin-1-yl)pyridin-2-yl)phenyl)urea]	> 7.00
Cc1ccc(NC(=O)Nc2sc(C(C)(C)C)cc2C(=O)N2CCNC(=O)C2(C)C)cc1-c1ccc(CN2CCOCC2)cn1 [1-(5-tert-butyl-3-(2,2-dimethyl-3-oxopiperazine-1-carbonyl)thiophen-2-yl)-3-(4-methyl-3-(5-(morpholinomethyl)pyridin-2-yl)phenyl)urea]	> 7.00
Cc1ccc(NC(=O)Nc2sc(C(C)(C)C)cc2C(=O)N2CCNC(=O)C2(C)C)cc1-c1ccc(N2CCOCC2)cn1 [1-(5-tert-butyl-3-(2,2-dimethyl-3-oxopiperazine-1-carbonyl)thiophen-2-yl)-3-(4-methyl-3-(5-morpholinopyridin-2-yl)phenyl)urea]	> 7.00
Cc1ccc(NC(=O)Nc2sc(C(C)(C)C)cc2C(=O)N2CCNC(=O)C2(C)C)cc1-c1ccc(OCCN2CCNCC2)nc1 [1-(5-tert-butyl-3-(2,2-dimethyl-3-oxopiperazine-1-carbonyl)thiophen-2-yl)-3-(4-methyl-3-(6-(2-(piperazin-1-yl)ethoxy)pyridin-3-yl)phenyl)urea]	> 7.00
Cc1ccc(NC(=O)Nc2sc(C(C)(C)C)cc2C(=O)N2CCNC(=O)C2(C)C)cc1-c1ccc(OCCN2CCCCC2)nc1 [1-(5-tert-butyl-3-(2,2-dimethyl-3-oxopiperazine-1-carbonyl)thiophen-2-yl)-3-(4-methyl-3-(6-(2-(piperidin-1-yl)ethoxy)pyridin-3-yl)phenyl)urea]	> 7.00
Cc1ccc(NC(=O)Nc2sc(C(C)(C)C)cc2C(=O)N2CCNC(=O)C2(C)C)cc1-c1ccc(OCCN2CCOCC2)nc1 [1-(5-tert-butyl-3-(2,2-dimethyl-3-oxopiperazine-1-carbonyl)thiophen-2-yl)-3-(4-methyl-3-(6-(2-morpholinoethoxy)pyridin-3-yl)phenyl)urea]	> 7.00
